# Tests used:
# Toll-like receptor 7 [1] = target: T1, Toll-like receptor 7 (Mus musculus, UniProt P58681); experiment: Agonist activity at mouse TLR7
# T1 sequence (P58681 whole entry): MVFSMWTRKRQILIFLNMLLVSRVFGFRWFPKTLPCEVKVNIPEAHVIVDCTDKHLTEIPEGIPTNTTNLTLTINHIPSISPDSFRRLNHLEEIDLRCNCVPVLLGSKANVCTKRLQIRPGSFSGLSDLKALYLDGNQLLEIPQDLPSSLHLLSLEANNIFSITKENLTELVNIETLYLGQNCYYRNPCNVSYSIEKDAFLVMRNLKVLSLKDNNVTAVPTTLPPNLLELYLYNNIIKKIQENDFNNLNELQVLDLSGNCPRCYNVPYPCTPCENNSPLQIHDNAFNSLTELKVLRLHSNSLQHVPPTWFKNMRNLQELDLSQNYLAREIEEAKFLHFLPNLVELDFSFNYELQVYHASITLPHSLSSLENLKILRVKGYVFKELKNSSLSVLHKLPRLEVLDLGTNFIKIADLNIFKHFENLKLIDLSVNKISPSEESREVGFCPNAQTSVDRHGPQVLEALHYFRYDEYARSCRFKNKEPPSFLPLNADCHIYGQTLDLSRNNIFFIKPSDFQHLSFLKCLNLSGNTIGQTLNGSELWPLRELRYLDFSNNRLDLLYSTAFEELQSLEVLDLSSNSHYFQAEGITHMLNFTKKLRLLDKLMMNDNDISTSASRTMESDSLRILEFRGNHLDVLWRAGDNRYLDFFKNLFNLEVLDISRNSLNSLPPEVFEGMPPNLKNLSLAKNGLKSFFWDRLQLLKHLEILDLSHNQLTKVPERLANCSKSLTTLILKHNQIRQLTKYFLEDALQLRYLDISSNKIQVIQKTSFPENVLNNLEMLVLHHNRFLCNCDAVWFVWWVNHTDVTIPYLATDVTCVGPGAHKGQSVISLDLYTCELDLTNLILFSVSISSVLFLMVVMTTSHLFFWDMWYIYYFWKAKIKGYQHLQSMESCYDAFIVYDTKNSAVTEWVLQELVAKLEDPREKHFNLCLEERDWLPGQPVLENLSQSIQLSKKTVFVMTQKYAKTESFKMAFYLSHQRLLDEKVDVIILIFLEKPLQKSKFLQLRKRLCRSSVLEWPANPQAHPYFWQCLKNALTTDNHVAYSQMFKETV
# Cytochrome P450 2C8 = target: T2, Cytochrome P450 2C8 (Homo sapiens, UniProt P10632); experiment: Inhibition of CYP2C8 (unknown origin); type: ADME; conditions: for inhibition (INH): human
# T2 sequence (P10632 whole entry): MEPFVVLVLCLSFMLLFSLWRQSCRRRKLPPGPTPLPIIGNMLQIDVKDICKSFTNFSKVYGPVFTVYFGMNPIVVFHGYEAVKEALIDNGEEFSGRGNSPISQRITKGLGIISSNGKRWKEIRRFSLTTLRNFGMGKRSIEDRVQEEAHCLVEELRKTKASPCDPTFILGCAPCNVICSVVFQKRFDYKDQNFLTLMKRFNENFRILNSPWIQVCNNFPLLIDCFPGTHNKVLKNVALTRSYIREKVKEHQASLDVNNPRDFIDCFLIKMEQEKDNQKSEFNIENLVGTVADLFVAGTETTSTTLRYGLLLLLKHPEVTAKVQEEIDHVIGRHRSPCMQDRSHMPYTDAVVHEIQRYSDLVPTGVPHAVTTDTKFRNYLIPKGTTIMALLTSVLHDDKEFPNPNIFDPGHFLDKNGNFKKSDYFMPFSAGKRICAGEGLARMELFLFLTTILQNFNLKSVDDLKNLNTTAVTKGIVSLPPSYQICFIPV
# [2] = Metabolic stability in human liver microsomes assessed as compound remaining at 0.5 uM incubated for 10 mins in presence of NADPH by UV absorbance based assay; type: ADME, Microsome; conditions: read-out: Stability
# Cytochrome P450 2D6 = Cytochrome P450 2D6 (Homo sapiens, UniProt P10635); experiment: Inhibition of CYP2D6 (unknown origin); type: ADME; conditions: for inhibition (INH): human
# Chain of Cytochrome P450 2D6 (P10635 whole entry): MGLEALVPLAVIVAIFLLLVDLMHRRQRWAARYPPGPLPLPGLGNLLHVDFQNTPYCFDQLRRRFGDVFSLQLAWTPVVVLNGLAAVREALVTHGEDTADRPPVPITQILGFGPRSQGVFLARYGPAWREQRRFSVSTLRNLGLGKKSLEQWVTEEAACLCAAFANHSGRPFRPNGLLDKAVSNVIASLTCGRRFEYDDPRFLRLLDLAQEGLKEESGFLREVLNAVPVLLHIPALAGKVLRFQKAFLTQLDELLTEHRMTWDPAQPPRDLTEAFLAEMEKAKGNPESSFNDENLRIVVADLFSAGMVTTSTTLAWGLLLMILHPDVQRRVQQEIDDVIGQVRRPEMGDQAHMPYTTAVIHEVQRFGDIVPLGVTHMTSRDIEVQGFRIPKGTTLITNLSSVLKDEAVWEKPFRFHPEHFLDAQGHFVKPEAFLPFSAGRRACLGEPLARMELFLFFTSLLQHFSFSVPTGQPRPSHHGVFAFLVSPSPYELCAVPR
# Cytochrome P450 2C19 = Cytochrome P450 2C19 (Homo sapiens, UniProt P33261); experiment: Inhibition of CYP2C19 (unknown origin); type: ADME; conditions: for inhibition (INH): human
# Chain of Cytochrome P450 2C19 (P33261 whole entry): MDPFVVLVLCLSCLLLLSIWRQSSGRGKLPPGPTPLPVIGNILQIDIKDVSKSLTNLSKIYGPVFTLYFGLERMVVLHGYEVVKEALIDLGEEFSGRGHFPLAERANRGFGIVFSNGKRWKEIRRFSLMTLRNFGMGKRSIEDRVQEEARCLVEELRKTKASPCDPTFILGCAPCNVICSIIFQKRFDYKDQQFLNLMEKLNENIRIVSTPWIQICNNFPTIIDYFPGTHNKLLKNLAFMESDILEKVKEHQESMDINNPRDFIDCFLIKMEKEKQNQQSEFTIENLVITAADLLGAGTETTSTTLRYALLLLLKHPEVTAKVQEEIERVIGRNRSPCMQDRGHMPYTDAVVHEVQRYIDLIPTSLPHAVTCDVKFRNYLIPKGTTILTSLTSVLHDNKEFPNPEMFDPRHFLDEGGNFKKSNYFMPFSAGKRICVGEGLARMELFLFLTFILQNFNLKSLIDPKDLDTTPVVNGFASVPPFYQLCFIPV
# Cytochrome P450 2C9 = Cytochrome P450 2C9 (Homo sapiens, UniProt P11712); experiment: Inhibition of CYP2C9 (unknown origin); type: ADME; conditions: for inhibition (INH): human
# Chain of Cytochrome P450 2C9 (P11712 whole entry): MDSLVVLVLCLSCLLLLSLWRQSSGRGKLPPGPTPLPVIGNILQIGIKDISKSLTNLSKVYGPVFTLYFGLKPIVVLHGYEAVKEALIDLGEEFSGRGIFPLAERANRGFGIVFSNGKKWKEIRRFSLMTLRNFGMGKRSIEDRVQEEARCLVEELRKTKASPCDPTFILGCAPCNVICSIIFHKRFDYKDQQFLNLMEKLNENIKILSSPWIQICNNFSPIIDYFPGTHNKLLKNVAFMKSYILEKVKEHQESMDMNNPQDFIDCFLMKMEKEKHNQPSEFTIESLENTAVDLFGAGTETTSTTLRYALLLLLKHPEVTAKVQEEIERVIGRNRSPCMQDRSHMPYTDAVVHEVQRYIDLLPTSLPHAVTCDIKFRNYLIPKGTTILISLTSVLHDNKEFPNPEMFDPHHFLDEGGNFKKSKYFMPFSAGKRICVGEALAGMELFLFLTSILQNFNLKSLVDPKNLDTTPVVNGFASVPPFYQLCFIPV
# [3] = target: Voltage-gated inwardly rectifying potassium channel KCNH2 (Homo sapiens, UniProt Q12809); experiment: Inhibition of hERG; type: toxicity; conditions: for inhibition (INH): human
# Chain of Voltage-gated inwardly rectifying potassium channel KCNH2 (Q12809 whole entry): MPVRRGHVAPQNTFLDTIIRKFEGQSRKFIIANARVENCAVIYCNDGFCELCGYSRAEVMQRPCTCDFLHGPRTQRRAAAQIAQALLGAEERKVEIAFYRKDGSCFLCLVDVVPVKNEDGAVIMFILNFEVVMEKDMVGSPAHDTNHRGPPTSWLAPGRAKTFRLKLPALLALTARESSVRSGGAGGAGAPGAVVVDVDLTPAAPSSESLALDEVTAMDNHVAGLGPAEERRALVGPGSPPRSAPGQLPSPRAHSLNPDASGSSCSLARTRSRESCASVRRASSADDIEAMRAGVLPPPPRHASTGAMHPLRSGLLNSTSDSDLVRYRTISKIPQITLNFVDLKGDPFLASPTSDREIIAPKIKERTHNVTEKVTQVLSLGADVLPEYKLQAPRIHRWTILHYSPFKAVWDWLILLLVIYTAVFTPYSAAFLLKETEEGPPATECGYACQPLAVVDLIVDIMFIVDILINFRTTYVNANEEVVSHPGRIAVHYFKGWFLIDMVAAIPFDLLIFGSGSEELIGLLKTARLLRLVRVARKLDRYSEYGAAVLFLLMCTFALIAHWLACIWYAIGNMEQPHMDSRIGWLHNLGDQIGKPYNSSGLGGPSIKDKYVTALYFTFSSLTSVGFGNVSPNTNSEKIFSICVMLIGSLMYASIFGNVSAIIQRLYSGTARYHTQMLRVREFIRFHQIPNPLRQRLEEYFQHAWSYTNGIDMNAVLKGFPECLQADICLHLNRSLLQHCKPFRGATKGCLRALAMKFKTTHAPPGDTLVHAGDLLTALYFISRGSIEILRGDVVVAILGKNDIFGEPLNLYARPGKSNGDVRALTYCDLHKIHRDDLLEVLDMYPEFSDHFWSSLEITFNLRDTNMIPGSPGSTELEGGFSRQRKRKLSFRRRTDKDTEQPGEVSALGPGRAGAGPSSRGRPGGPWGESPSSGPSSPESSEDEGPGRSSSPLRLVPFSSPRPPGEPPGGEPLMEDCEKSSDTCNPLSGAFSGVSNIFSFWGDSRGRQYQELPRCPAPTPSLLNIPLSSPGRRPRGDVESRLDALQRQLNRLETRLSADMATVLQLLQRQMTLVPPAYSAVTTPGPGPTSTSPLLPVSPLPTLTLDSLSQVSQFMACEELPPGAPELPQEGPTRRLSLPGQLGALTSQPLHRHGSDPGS
# Cytochrome P450 3A4 [4] = target: T3, Cytochrome P450 3A4 (Homo sapiens, UniProt P08684); experiment: Inhibition of CYP3A4 (unknown origin) using BFC as substrate; type: ADME; conditions: for inhibition (INH): human
# T3 sequence (P08684 whole entry): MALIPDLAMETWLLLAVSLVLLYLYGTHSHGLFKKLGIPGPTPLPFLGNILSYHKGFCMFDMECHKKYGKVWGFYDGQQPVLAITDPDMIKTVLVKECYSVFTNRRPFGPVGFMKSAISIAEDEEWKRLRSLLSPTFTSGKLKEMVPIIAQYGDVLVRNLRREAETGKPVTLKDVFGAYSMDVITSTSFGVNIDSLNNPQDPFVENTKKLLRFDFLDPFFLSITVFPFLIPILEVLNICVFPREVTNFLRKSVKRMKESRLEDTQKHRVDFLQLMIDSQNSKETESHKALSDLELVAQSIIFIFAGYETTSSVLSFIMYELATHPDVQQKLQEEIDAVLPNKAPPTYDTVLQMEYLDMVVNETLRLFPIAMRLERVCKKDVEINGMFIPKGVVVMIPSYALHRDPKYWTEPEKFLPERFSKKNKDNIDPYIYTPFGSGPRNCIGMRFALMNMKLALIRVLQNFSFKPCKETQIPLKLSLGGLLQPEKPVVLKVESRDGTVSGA
# Cytochrome P450 3A4 [5] = target: T3, Cytochrome P450 3A4; experiment: Inhibition of CYP3A4 (unknown origin) using BFC as substrate preincubated with compound followed by substrate addition at 30 mins; type: ADME
# [6] = Metabolic stability in mouse liver microsomes assessed as compound remaining at 0.5 uM incubated for 10 mins in presence of NADPH by UV absorbance based assay; type: ADME, Microsome; conditions: read-out: Stability
# Cytochrome P450 1A2 = target: T4, Cytochrome P450 1A2 (Homo sapiens, UniProt P05177); experiment: Inhibition of CYP1A2 (unknown origin); type: ADME; conditions: for inhibition (INH): human
# T4 sequence (P05177 whole entry): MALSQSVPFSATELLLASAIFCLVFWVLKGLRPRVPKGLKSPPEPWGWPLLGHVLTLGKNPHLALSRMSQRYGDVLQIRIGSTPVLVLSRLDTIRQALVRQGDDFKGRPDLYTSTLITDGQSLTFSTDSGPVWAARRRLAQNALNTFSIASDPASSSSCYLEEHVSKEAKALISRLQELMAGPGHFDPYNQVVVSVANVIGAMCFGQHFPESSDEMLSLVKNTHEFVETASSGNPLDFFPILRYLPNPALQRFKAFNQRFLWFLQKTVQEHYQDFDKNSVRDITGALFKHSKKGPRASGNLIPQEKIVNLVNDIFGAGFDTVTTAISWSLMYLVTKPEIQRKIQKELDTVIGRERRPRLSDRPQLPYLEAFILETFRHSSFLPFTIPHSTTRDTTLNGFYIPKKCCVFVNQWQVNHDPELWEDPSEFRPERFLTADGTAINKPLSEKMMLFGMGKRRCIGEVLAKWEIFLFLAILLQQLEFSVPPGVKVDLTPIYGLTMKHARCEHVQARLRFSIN
# [7] = Cytotoxicity against PHA-activated T-cells (unknown origin) assessed as inhibition of IL-2 induced cell proliferation measured after 72 hrs by MTS assay; type: toxicity, cell-based
# Cytochrome P450 3A4 [8] = target: T3, Cytochrome P450 3A4; experiment: Inhibition of CYP3A4 (unknown origin) using BFC as substrate preincubated with compound followed by substrate addition at 5 mins; type: ADME
# Toll-like receptor 7 [9] = target: T5, Toll-like receptor 7 (Homo sapiens, UniProt Q9NYK1); experiment: Agonist activity at human TLR7 in HEK-Blue hTLR7 cells harboring SEAP reporter transgene incubated for 18 hrs by quanti-blue reagent based assay; type: cell-based
# T5 sequence (Q9NYK1 whole entry): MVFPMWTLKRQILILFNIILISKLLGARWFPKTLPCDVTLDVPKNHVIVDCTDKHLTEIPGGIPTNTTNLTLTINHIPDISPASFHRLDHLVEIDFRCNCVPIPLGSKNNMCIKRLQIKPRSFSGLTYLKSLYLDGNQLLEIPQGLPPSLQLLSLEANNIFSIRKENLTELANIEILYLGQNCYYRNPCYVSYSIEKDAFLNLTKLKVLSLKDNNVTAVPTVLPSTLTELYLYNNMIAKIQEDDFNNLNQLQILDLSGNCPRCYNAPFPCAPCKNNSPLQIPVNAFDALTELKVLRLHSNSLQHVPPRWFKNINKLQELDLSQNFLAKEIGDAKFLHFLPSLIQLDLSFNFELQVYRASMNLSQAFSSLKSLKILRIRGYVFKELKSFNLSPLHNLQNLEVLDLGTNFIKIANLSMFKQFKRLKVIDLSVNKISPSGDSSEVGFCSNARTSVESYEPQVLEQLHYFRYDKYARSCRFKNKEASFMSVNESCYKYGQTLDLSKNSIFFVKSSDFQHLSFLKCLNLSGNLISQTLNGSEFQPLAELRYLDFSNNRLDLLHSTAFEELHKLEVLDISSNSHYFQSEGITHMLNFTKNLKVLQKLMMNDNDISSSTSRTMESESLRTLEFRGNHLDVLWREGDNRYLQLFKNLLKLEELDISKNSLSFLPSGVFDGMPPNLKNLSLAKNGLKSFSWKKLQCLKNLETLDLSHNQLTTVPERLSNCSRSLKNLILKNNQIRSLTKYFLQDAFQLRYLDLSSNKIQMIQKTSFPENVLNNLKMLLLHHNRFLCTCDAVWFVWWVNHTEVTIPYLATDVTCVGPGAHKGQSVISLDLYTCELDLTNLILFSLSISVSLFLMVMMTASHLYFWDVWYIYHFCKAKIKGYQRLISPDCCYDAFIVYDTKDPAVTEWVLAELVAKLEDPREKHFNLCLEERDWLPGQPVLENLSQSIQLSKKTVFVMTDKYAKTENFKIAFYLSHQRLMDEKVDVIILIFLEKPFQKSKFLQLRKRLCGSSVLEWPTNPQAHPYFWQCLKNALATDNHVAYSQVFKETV
Structure (SMILES),EC50 (Toll-like receptor 7 [1]) [µM],IC50 (Cytochrome P450 2C8) [µM],"remaining at 10 min, 0.5 µM [2] [%]",IC50 (Cytochrome P450 2D6) [µM],IC50 (Cytochrome P450 2C19) [µM],IC50 (Cytochrome P450 2C9) [µM],IC50 [3] [µM],IC50 (Cytochrome P450 3A4 [4]) [µM],IC50 (Cytochrome P450 3A4 [5]) [µM],"remaining at 10 min, 0.5 µM [6] [%]",IC50 (Cytochrome P450 1A2) [µM],IC50 at 72 h [7] [µM],IC50 (Cytochrome P450 3A4 [8]) [µM],EC50 (Toll-like receptor 7 [9]) [µM],inhibition (INH) (Cytochrome P450 2C8),inhibition (INH) (Cytochrome P450 2D6),inhibition (INH) (Cytochrome P450 2C19),inhibition (INH) (Cytochrome P450 2C9),inhibition (INH) [3],inhibition (INH) (Cytochrome P450 3A4 [4]),also measured
CCC[C@@H](CCO)Nc1nc(N)nc2cnn(Cc3ncc(C4CCC5(CC4)CNC5)cc3OC)c12,0.177,> 14,100,> 14,> 14,> 14,14,> 14,> 14,44,> 14,> 25,> 14,0.133,–,–,–,–,–,–,–
CCCCNc1nc(N)nc2cnn(Cc3ccc(C4CCNCC4)cc3OC(F)F)c12,0.465,–,100,–,–,–,–,–,–,17,–,> 25,–,0.087,Not Active,Not Active,Not Active,Not Active,Not Active,Not Active,inhibition (INH) (Cytochrome P450 1A2): Not Active
CCC[C@@H](CCO)Nc1nc(N)nc2cnn(Cc3ncc(C4=CC5(CCNCC5)C4)cc3OC)c12,1.91,> 20,80,> 20,> 20,> 20,10,> 20,> 20,93,> 20,> 25,> 20,–,–,–,–,–,–,–,–
CCCCNc1nc(N)nc2cnn(Cc3ccc(C4CCNCC4)cc3OC)c12,0.074,4.97,89,14.2,9.42,> 20,4,> 20,> 20,54,> 20,> 25,> 20,–,–,–,–,–,–,–,–
CCC[C@@H](CCO)Nc1nc(N)nc2cnn(Cc3ncc(C4CC5(C4)CN(C(C)C)C5)cc3OC)c12,0.626,–,–,–,–,–,–,–,–,–,–,> 25,–,–,Not Active,Not Active,Not Active,Not Active,Not Active,Not Active,inhibition (INH) (Cytochrome P450 1A2): Not Active

# — ChEMBL document CHEMBL5357082, “Identification and Optimization of Small Molecule Pyrazolopyrimidine TLR7 Agonists for Applications in Immuno-oncology” (ACS Med Chem Lett, 2024)
